Measured values reported in patent US20180028477A1, “TREATMENT OF CARDIAC REMODELING AND OTHER HEART CONDITIONS” (C & C BIOPHARMA, LLC, priority 2013, published 2018).
Entries after “also recorded” stand apart in the source; their conditions may differ.

Assays:
[1] = tested on: Neonatal Rat Ventricular Myocytes (NRVMs); assay: Serum (FBS)-induced hypertrophy of Neonatal Rat Ventricular Myocytes in vitro; assay type: cell-based; conditions: for viability: NRVMs (not shown); for order of potency for inhibitors / growth response to Fetal Bovine Serum / serum-stimulated myocyte growth (hypertrophy): NRVMs; for order of potency for inhibitors: FBS-induced growth; for growth response to Fetal Bovine Serum / serum-stimulated myocyte growth (hypertrophy): pre-treatment with a range of doses
Protocol: The cells were also treated with DMSO (light gray bars) or a vehicle (dark gray bars) as a negative control. The order of potency for inhibitors was DMSO<7MI<TSA<8MI. Viability was unchanged (not shown).
Next, the ability of 7MI and 8MI to inhibit hypertrophy in vitro was tested (FIG. 2A). […] However, fetal calf serum, which contained a rich variety of growth factors, was chosen as the most robust and multifactorial stimulus for cardiomyocyte growth available, reasoning that a similarly robust and powerful inhibitor would be required to block this hypertrophy.

[2] = Metabolic stability in human liver microsomes fortified with NADPH (Example 11); assay type: in vitro ADME; design: CLint scaled: dose or concentration left out as unconfirmed; conditions: for K (rate constant): 0.5 mg/mL human liver microsomes, 1 mM NADPH, pH 7.4, 37° C.; for Clhp (hepatic clearance) / CLint scaled / metabolic stability / clearance in the liver, in words / intrinsic clearance (Clint) rate, fold higher than 7MI / intrinsic clearance (Clint) rate, fold higher than 8MI: human liver microsomes; for CLint scaled: pH 7.4, from mono-exponential decay model, read-out: Clint (intrinsic clearance); for metabolic stability / clearance in the liver, in words: comparison of 7MI, 8MI, BML-210, TSA; for intrinsic clearance (Clint) rate, fold higher than 7MI: ratio to 7MI; for intrinsic clearance (Clint) rate, fold higher than 8MI: ratio to 8MI
Source text: Drug clearance is a measure of the ability of the body or an organ to eliminate a drug from the blood circulation. Systemic clearance is a measure of the ability of the entire body to eliminate the drug. Organ clearance is a measure of the ability of a particular organ (hepatic or renal) to eliminate the drug. For hepatic clearance, the liver is the major organ for drug metabolism and the key organ for drug clearance. Human liver microsomes (HLM) fortified with NADPH is a standard way to measure in vitro metabolism and predict in vivo clearance. CLint (intrinsic clearance) is the link between in vitro and in vivo studies, which can be estimated based on the mono-exponential decay model: Ct=C X e^−kt.
Human liver microsomes fortified with NADPH is a standard approach to evaluate metabolic stability mediated by CYP (cytochrome P450) enzymes in vitro. The reaction mixture (0.4 mL) contained 0.5 mg/mL human liver microsomes, 100 mM phosphate buffer (pH 7.4) and […] of test compounds. The mixture was first warmed up for 5 min in a 37° C. shaking water bath and then NADPH at a final concentration of 1 mM was added to initiate the reaction. Aliquots […] were taken at specified time points and mixed with ice-cold methanol (containing internal standard) to stop the reaction. The mixture was vortexed briefly and centrifuged for protein precipitation. An aliquot of […] supernatant was subject to LC-MS/MS analysis. The percentage of compound disappearance was used to calculate the rate of metabolism.

HDACs = conditions: background statement; cited from earlier work
[3] = mice, previously reported, cited from earlier work

SMILES | viability [1] | order of potency for inhibitors [1] | growth response to Fetal Bovine Serum / serum-stimulated myocyte growth (hypertrophy) [1] | K (rate constant) [2] | Clhp (hepatic clearance) [2] | CLint scaled [2] | metabolic stability / clearance in the liver, in words [2] | intrinsic clearance (Clint) rate, fold higher than 7MI [2] | intrinsic clearance (Clint) rate, fold higher than 8MI [2] | HDAC inhibition range (HDACs) | survival at the tolerated daily dosage ([3]; 1 mg/kg) | tolerated daily dosage [3]
Nc1ccccc1NC(=O)CCCCCC(=O)Nc1ccc(Br)cc1 [7MI] | unchanged | DMSO<7MI<TSA<8MI | sufficient to block myocyte hypertrophy; also recorded: depressed growth response | 0.0027 min⁻¹ | 2.45 mL/min/kg | 2.78 mL/min/kg | – | – | – | – | – | –
Nc1ccccc1NC(=O)CCCCCCC(=O)Nc1ccccc1 [BML-210, reference compound] | – | – | – | 0.0116 min⁻¹ | 7.57 mL/min/kg | 11.9 mL/min/kg | high clearance compound | 4.3 fold | 2.5 fold | – | – | –
O=C(CCCCCN1C(=O)c2cccc3cccc(c23)C1=O)NO [Scriptaid] | – | – | – | – | – | – | – | – | – | low nanomolar range | – | –
CC(/C=C/C(=O)NO)=C\[C@@H](C)C(=O)c1ccc(N(C)C)cc1 [TSA, Trichostatin A, reference compound] | unchanged | DMSO<7MI<TSA<8MI | depressed growth response | 0.0088 min⁻¹ | 6.30 mL/min/kg | 9.05 mL/min/kg | metabolically cleared much faster than 7MI or 8MI | 3.2 fold | 1.9 fold | low nanomolar range | not all of the mice survived | 1 mg/kg
